Results as given in ChEMBL document CHEMBL1159133, “A cembranolide diterpene farnesyl protein transferase inhibitor from the marine soft coral Lobophytum cristagalli” (Bioorg Med Chem Lett, 1996).

Columns and labels:
[1] = target: T1, Protein farnesyltransferase (Homo sapiens, UniProt P49354+P49356); assay: Inhibition of recombinant human farnesyl protein transferase; type: protein-complex assay
[2] = target: T1, Protein farnesyltransferase; assay: Kinetic parameter for inhibition of farnesyl protein transferase; type: protein-complex assay
[3] = target: Geranylgeranyl transferase type I (Homo sapiens, UniProt P49354+P53609); assay: Inhibitory activity against recombinant human Geranylgeranyl transferase type I; type: protein-complex assay
[4] = target: T1, Protein farnesyltransferase; assay: Percent inhibition of H-Ras processing in COS cells at 5.3 uM; type: cell-based

IC50 [1]: 150 nM
Ki [2]: 170 nM
IC50 [3]: 5300 nM
inhibition [4]: 26%
SMILES: C=C1C(=O)O[C@H]2[C@H]1[C@@H](OC(C)=O)C/C(C)=C/CC/C(C)=C/CC[C@@]1(C)O[C@H]21
